How the values were obtained:
[1] = tested on: MDA-MB-231-luc-D3H2LN cells; assay: Survival in a rodent model of breast cancer (intracardiac injection of MDA-MB-231-luc-D3H2LN cells); format: in vivo, Female Harlan nude mice (Hsd:Athymic Nude-Foxn1nu); conditions: for effect on survival (Kaplan-Meier, FIG. 1): intraperitoneal QDx5 from day 22 after implantation, 5 mg/kg gemcitabine-ibandronate conjugate, 6 mg/mg gemcitabine-etidronate conjugate, equimolar free etidronate, ibandronate, gemcitabine, groups of 10
Method: FIG. 1 provides Kaplan-Meier survival curves: a murine model of breast cancer of mice treated with saline gemcitabine-ibandronate conjugate (GEM-IB) or gemcitabine-etidronate conjugate (GEM-ET).
Female Harlan nude mice (Hsd:Athymic Nude-Foxn1nu) of 8 weeks age were administered a 100 uL intracardiac injection of MDA-MB-231-luc-D3H2LN cells (Caliper/Xenogen) at106 cells/mL in Dulbecco's Phosphate Buffered Saline. Twenty-two days after implantation the animals were randomized into groups of 10. Each group received one of the following agents 5 days per week (QDx5) as a 100 uL intraperitoneal injection to achieve a dosing of: saline, 5 mg/kg gemcitabine-ibandronate conjugate, 6 mg/mg gemcitabine-etidronate conjugate, equimolar free etidronate, equimolar free ibandronate, equimolar free gemcitabine.

[2] = tested on: 22 RV1-Luc+ prostate cancer cells; assay: Survival and tumor imaging in a rodent model of prostate cancer induced bone disease (intratibial 22 RV1-Luc+ cells); format: in vivo, male SCID mice
Method: Six-week old male SCID mice were injected with 10 uL of 10^6 22 RV1-Luc+ prostate cancer cells into the tibia. Luminescence on day 6 confirmed implantation and mice were randomized into groups of 10 and began dosing on day 7. Mice received intraperitoneal injections 5 days/week of saline or 2 mg/kg gemcitibine-ibandronate conjugate (compound 5, example 1) until the end of week 6 and were imaged every 7 days. A Xenogen imaging station was used to visualize tumor cells; the heat map from light blue to red indicates increasing tumor cells numbers.

[3] = tested on: 22 RV1-Luc+ prostate cancer cells; assay: Incidence of distal metastases in a rodent model of prostate cancer induced bone disease (intratibial 22 RV1-Luc+ cells); format: in vivo, male SCID mice; conditions: day 34 and day 41; for percent of mice with distal metastases (FIG. 3): 2 mg/kg gemcitabine-ibandronate conjugate or molar equivalent, intraperitoneal QDx5 from day 7, versus saline
Method: Mice were treated with saline, or equimolar doses of ibandronate (Iband), gemcitabine (Gem), gemcitabine-etidronate conjugate (Gem-Eti), or with the gemcitabine-ibandronate conjugate 5 (Gem-Ibad).
As above in example 5, six-week old male SCID mice were injected with 10 uL of 10^6 22 RV1-Luc+ prostate cancer cells into the tibia. Luminescence on day 6 confirmed implantation and mice were randomized into groups of 10-13 and began dosing on day 7. Mice received intraperitoneal injections QDx5 (5 days/week) of saline or 2 mg/kg gemcitibine-ibandronate conjugate or the molar equivalent of gemcitabine-etidronate conjugate, free ibandronate, or free gemcitibine until the end of week 6 and were imaged every 7 days. A Xenogen imaging station was used to visualize tumor cells and metastases distal to the tibial site of implantation.

| Molecule | survival benefit compared with the other treatments ([1]; intraperitoneal QDx5, 5 mg/kg gemcitabine-ibandronate conjugate versus 6 mg/mg gemcitabine-etidronate conjugate) | effect on survival (Kaplan-Meier, FIG. 1) [1] | mice alive at the end of 42 days (FIG. 2) ([2]; 2 mg/kg intraperitoneal 5 days/week from day 7 until end of week 6, groups of 10, saline control 6 of 10 alive) | cancer cells present by Xenogen image analysis ([2]; 2 mg/kg intraperitoneal 5 days/week, from day 28 and later, versus saline) | percent of mice with distal metastases (FIG. 3) [3] | benefit on distal metastases compared with the other treatments ([3]; 2 mg/kg intraperitoneal QDx5) |
| --- | --- | --- | --- | --- | --- | --- |
| CCCCCN(C)CCC(O)(P(=O)(O)O)P(=O)(O)OP(=O)(O)OC[C@H]1O[C@@H](n2ccc(N)nc2=O)C(F)(F)C1O (some centres unmarked) [conjugate 5, Gemcitabine-Ibandronate Conjugate] | greatest benefit | improved survival | all mice treated with the compound 5 (example 1) were alive | less cancer cells are present | reduced the percent of mice with distal metastases | superior benefit |
| CC(O)(P(=O)(O)O)P(=O)(O)O [etidronate] | – | did not have a significant effect on survival | – | – | – | – |
| Nc1ccn([C@@H]2O[C@H](CO)[C@@H](O)C2(F)F)c(=O)n1 [gemcitabine, Gemcitabine] | – | did not have a significant effect on survival | – | – | – | – |
| CCCCCN(C)CCC(O)(P(=O)(O)O)P(=O)(O)O [ibandronate] | – | did not have a significant effect on survival | – | – | – | – |
| gemcitabine-etidronate conjugate [reference compound] | – | improved survival | – | – | reduced the percent of mice with distal metastases | – |
